{"source": "PubChem BioAssay AID256", "about": "(DTP/NCI, 2004)", "tested_on": "CD2F1 mice, L1210 leukemia ip, survival T/C", "assay": "NCI In Vivo Anticancer Drug Screen. Data for tumor model L1210 Leukemia (intraperitoneal) in CD2F1 (CDF1) mice", "conditions": "higher = longer survival", "procedure,_shortened": "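Vehicle-treated tumor-bearing mice served as controls (C) for compound-treated mice (T). Reported figure is T divided by C.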", "note": "Several values for one entry are separate records, joined by “and”; a condition that tells them apart may be missing. Equal values may be shown once. Inconclusive results and toxic doses are left out.", "data": [{"smiles": "COc1cc(NS(C)(=O)=O)ccc1Nc1c2ccccc2nc2ccccc12", "values": [{"measurement": "T/C", "setting": "endpoint: mean survival time, dose: 1.0 mg/kg/injection, schedule: Q01DX009 (ip), vehicle: saline", "result": "110 % of control"}, {"measurement": "T/C", "setting": "endpoint: mean survival time, dose: 1.0 mg/kg/injection, schedule: Q01DX009 (sc), vehicle: saline", "result": "101 % of control"}, {"measurement": "T/C", "setting": "endpoint: mean survival time, dose: 1.8 mg/kg/injection, schedule: Q01DX009 (ip), vehicle: other", "result": "185 % of control"}, {"measurement": "T/C", "setting": "endpoint: mean survival time, dose: 2.0 mg/kg/injection, schedule: Q01DX009 (sc), vehicle: saline", "result": "104 % of control"}, {"measurement": "T/C", "setting": "endpoint: mean survival time, dose: 2.0 mg/kg/injection, schedule: Q03HX008 (ip), vehicle: saline", "result": "150 % of control"}, {"measurement": "T/C", "setting": "endpoint: mean survival time, dose: 2.0 mg/kg/injection, schedule: Q03HX024 (ip), vehicle: saline", "result": "151 % of control"}, {"measurement": "T/C", "setting": "endpoint: mean survival time, dose: 3.75 mg/kg/injection, schedule: Q01DX009 (ip), vehicle: other", "result": "173 % of control and 174 % of control"}, {"measurement": "T/C", "setting": "endpoint: mean survival time, dose: 3.75 mg/kg/injection, schedule: Q04DX003 (ip), vehicle: other", "result": "98 % of control"}, {"measurement": "T/C", "setting": "endpoint: mean survival time, dose: 4.0 mg/kg/injection, schedule: Q01DX009 (ip), vehicle: saline", "result": "155 % of control and 218 % of control and 161 % of control"}, {"measurement": "T/C", "setting": "endpoint: mean survival time, dose: 4.0 mg/kg/injection, schedule: Q01DX009 (oral), vehicle: saline", "result": "102 % of control"}, {"measurement": "T/C", "setting": "endpoint: mean survival time, dose: 4.0 mg/kg/injection, schedule: Q01DX009 (sc), vehicle: saline", "result": "113 % of control"}, {"measurement": "T/C", "setting": "endpoint: mean survival time, dose: 4.0 mg/kg/injection, schedule: Q03HX008 (ip), vehicle: saline", "result": "164 % of control"}, {"measurement": "T/C", "setting": "endpoint: mean survival time, dose: 4.0 mg/kg/injection, schedule: Q03HX016 (ip), vehicle: saline", "result": "346 % of control"}, {"measurement": "T/C", "setting": "endpoint: mean survival time, dose: 4.0 mg/kg/injection, schedule: Q03HX024 (ip), vehicle: saline", "result": "122 % of control"}, {"measurement": "T/C", "setting": "endpoint: mean survival time, dose: 7.5 mg/kg/injection, schedule: Q01DX009 (ip), vehicle: other", "result": "91 % of control and 93 % of control"}, {"measurement": "T/C", "setting": "endpoint: mean survival time, dose: 7.5 mg/kg/injection, schedule: Q04DX003 (ip), vehicle: other", "result": "150 % of control"}, {"measurement": "T/C", "setting": "endpoint: mean survival time, dose: 8.0 mg/kg/injection, schedule: Q01DX009 (oral), vehicle: saline", "result": "113 % of control"}, {"measurement": "T/C", "setting": "endpoint: mean survival time, dose: 8.0 mg/kg/injection, schedule: Q03HX008 (ip), vehicle: saline", "result": "86 % of control"}, {"measurement": "T/C", "setting": "endpoint: mean survival time, dose: 8.0 mg/kg/injection, schedule: Q03HX016 (ip), vehicle: saline", "result": "93 % of control"}, {"measurement": "T/C", "setting": "endpoint: mean survival time, dose: 15.0 mg/kg/injection, schedule: Q01DX001 (ip), vehicle: other", "result": "154 % of control"}, {"measurement": "T/C", "setting": "endpoint: mean survival time, dose: 15.0 mg/kg/injection, schedule: Q04DX003 (ip), vehicle: other", "result": "124 % of control and 221 % of control"}, {"measurement": "T/C", "setting": "endpoint: mean survival time, dose: 16.0 mg/kg/injection, schedule: Q01DX001 (sc), vehicle: saline", "result": "112 % of control"}, {"measurement": "T/C", "setting": "endpoint: mean survival time, dose: 16.0 mg/kg/injection, schedule: Q01DX009 (oral), vehicle: saline", "result": "102 % of control"}, {"measurement": "T/C", "setting": "endpoint: mean survival time, dose: 16.0 mg/kg/injection, schedule: Q01DX009 (sc), vehicle: saline", "result": "101 % of control"}, {"measurement": "T/C", "setting": "endpoint: mean survival time, dose: 16.0 mg/kg/injection, schedule: Q04DX003 (ip), vehicle: saline", "result": "150 % of control"}, {"measurement": "T/C", "setting": "endpoint: mean survival time, dose: 32.0 mg/kg/injection, schedule: Q01DX001 (sc), vehicle: saline", "result": "117 % of control"}, {"measurement": "T/C", "setting": "endpoint: mean survival time, dose: 32.0 mg/kg/injection, schedule: Q01DX009 (oral), vehicle: saline", "result": "93 % of control"}, {"measurement": "T/C", "setting": "endpoint: mean survival time, dose: 32.0 mg/kg/injection, schedule: Q04DX003 (ip), vehicle: saline", "result": "153 % of control"}, {"measurement": "T/C", "setting": "endpoint: mean survival time, dose: 64.0 mg/kg/injection, schedule: Q01DX001 (oral), vehicle: saline", "result": "109 % of control"}, {"measurement": "T/C", "setting": "endpoint: mean survival time, dose: 64.0 mg/kg/injection, schedule: Q01DX001 (sc), vehicle: saline", "result": "119 % of control"}, {"measurement": "T/C", "setting": "endpoint: mean survival time, dose: 64.0 mg/kg/injection, schedule: Q08DX002 (ip), vehicle: saline", "result": "154 % of control"}, {"measurement": "T/C", "setting": "endpoint: mean survival time, dose: 128.0 mg/kg/injection, schedule: Q01DX001 (ip), vehicle: saline", "result": "92 % of control"}, {"measurement": "T/C", "setting": "endpoint: mean survival time, dose: 128.0 mg/kg/injection, schedule: Q01DX001 (oral), vehicle: saline", "result": "114 % of control"}, {"measurement": "T/C", "setting": "endpoint: mean survival time, dose: 128.0 mg/kg/injection, schedule: Q01DX001 (sc), vehicle: saline", "result": "117 % of control"}, {"measurement": "T/C", "setting": "endpoint: mean survival time, dose: 256.0 mg/kg/injection, schedule: Q01DX001 (oral), vehicle: saline", "result": "104 % of control"}, {"measurement": "T/C", "setting": "endpoint: mean survival time, dose: 256.0 mg/kg/injection, schedule: Q01DX001 (sc), vehicle: saline", "result": "118 % of control"}, {"measurement": "T/C", "setting": "endpoint: mean survival time, dose: 512.0 mg/kg/injection, schedule: Q01DX001 (oral), vehicle: saline", "result": "112 % of control"}, {"measurement": "T/C", "setting": "endpoint: median survival time, dose: 0.25 mg/kg/injection, schedule: Q01DX009 (sc), vehicle: other", "result": "112 % of control"}]}]}
